Values quoted from earlier work in patent US7018649B2 (Euro-Celtique, S.A., priority 2000, dated 2006).

What was measured:
[1] = not given; remark: listed apart in the source
[2] = in vivo

SMILES: CCOC(=O)C1=C(C)NC(C)=C(C(=O)OC)C1c1cccc(Cl)c1Cl (racemic) [felodipine, 4-(2,3-dichlorophenyl)-1,4-dihydro-2,6-dimethyl-3,5-pyridinedicarboxylate]
- solubility in dichloromethane and ethanol (dichloromethane and ethanol): freely soluble
- solubility in water (water): not soluble
- plasma-protein bound (plasma-protein): 99%
- time to mean peak concentrations ([1]; after administration): 2.5 to 5 h
- excretion in the feces ([1]; after metabolism): 10%
- excretion in the urine ([1]; after metabolism): 70%
- onset of antihypertensive activity ([1]; following administration): 2 to 5 h
- plasma concentration at steady state ([1]; in vivo): 2 ng/mL
- bioavailability ([1]; oral dose, gastrointestinal absorption): approximately 20%
- most common adverse side effects [2]: peripheral edema and headaches
